Experimental data reported in PubChem BioAssay (NCI).
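Five concentrations, 48 hours, 96-well plates. GI50 is the concentration that inhibits growth by half. Definition used: TGI = concentration required for complete inhibition of growth.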

What was measured:
Test in all cases: NCI tumour cell line growth inhibition, 48 h
TK-10 renal = tested on: TK-10 renal
OVCAR-5 ovarian = tested on: OVCAR-5 ovarian
NCI-H522 lung = tested on: NCI-H522 lung
UACC-257 melanoma = tested on: UACC-257 melanoma
SW-620 colon = tested on: SW-620 colon
K-562 leukemia = tested on: K-562 leukemia
SN12C renal = tested on: SN12C renal
A498 renal = tested on: A498 renal
OVCAR-4 ovarian = tested on: OVCAR-4 ovarian
NCI-H226 lung = tested on: NCI-H226 lung
SF-295 CNS = tested on: SF-295 CNS
HL-60(TB) leukemia = tested on: HL-60(TB) leukemia
MDA-MB-231 breast = tested on: MDA-MB-231 breast
HT29 colon = tested on: HT29 colon
U251 CNS = tested on: U251 CNS
SNB-75 CNS = tested on: SNB-75 CNS
SF-539 CNS = tested on: SF-539 CNS
OVCAR-8 ovarian = tested on: OVCAR-8 ovarian
KM12 colon = tested on: KM12 colon
LOX IMVI melanoma = tested on: LOX IMVI melanoma
SK-MEL-5 melanoma = tested on: SK-MEL-5 melanoma
HS 578T breast = tested on: HS 578T breast
DU-145 prostate = tested on: DU-145 prostate
MDA-MB-435 = tested on: MDA-MB-435
NCI-H460 lung = tested on: NCI-H460 lung
HOP-92 NSCLC = tested on: HOP-92 NSCLC
BT-549 breast = tested on: BT-549 breast
SNB-19 CNS = tested on: SNB-19 CNS
HCT-15 colon = tested on: HCT-15 colon
ACHN renal = tested on: ACHN renal
HOP-62 NSCLC = tested on: HOP-62 NSCLC
SK-MEL-2 melanoma = tested on: SK-MEL-2 melanoma
UACC-62 melanoma = tested on: UACC-62 melanoma
MCF7 breast = tested on: MCF7 breast
NCI/ADR-RES ovarian = tested on: NCI/ADR-RES ovarian
IGROV1 ovarian = tested on: IGROV1 ovarian
A549 NSCLC = tested on: A549 NSCLC
M14 melanoma = tested on: M14 melanoma
SF-268 CNS = tested on: SF-268 CNS
UO-31 renal = tested on: UO-31 renal
SK-MEL-28 melanoma = tested on: SK-MEL-28 melanoma
SK-OV-3 ovarian = tested on: SK-OV-3 ovarian
PC-3 prostate = tested on: PC-3 prostate
SR leukemia = tested on: SR leukemia
COLO 205 colon = tested on: COLO 205 colon
HCT-116 colon = tested on: HCT-116 colon
NCI-H23 lung = tested on: NCI-H23 lung
EKVX NSCLC = tested on: EKVX NSCLC
786-0 renal = tested on: 786-0 renal
RPMI-8226 leukemia = tested on: RPMI-8226 leukemia
CAKI-1 renal = tested on: CAKI-1 renal
RXF 393 renal = tested on: RXF 393 renal
MOLT-4 leukemia = tested on: MOLT-4 leukemia
OVCAR-3 ovarian = tested on: OVCAR-3 ovarian

SMILES: Fc1ccc2c(c1)C1=NN(c3ccccc3)C(F)C1CO2 (configuration not stated)
- GI50 (TK-10 renal): 12.5 µM
- TGI (TK-10 renal): 35.6 µM
- GI50 (OVCAR-5 ovarian): 18.1 µM
- TGI (OVCAR-5 ovarian): > 50 µM
- GI50 (NCI-H522 lung): > 50 µM
- TGI (NCI-H522 lung): > 50 µM
- GI50 (UACC-257 melanoma): 9.7 µM
- TGI (UACC-257 melanoma): 26.5 µM
- GI50 (SW-620 colon): 9.95 µM
- TGI (SW-620 colon): 23.6 µM
- GI50 (K-562 leukemia): 17.6 µM
- TGI (K-562 leukemia): > 50 µM
- GI50 (SN12C renal): 6.93 µM
- TGI (SN12C renal): 14.7 µM
- GI50 (A498 renal): 11.4 µM
- TGI (A498 renal): 21 µM
- GI50 (OVCAR-4 ovarian): 7.72 µM
- TGI (OVCAR-4 ovarian): 17.4 µM
- GI50 (NCI-H226 lung): 8.08 µM
- TGI (NCI-H226 lung): 19.1 µM
- GI50 (SF-295 CNS): 6.45 µM
- TGI (SF-295 CNS): 17.1 µM
- GI50 (HL-60(TB) leukemia): 17.9 µM
- TGI (HL-60(TB) leukemia): > 50 µM
- GI50 (MDA-MB-231 breast): 5.36 µM
- TGI (MDA-MB-231 breast): 13.6 µM
- GI50 (HT29 colon): 10 µM
- TGI (HT29 colon): 26.3 µM
- GI50 (U251 CNS): 7.29 µM
- TGI (U251 CNS): 15.3 µM
- GI50 (SNB-75 CNS): 9.01 µM
- TGI (SNB-75 CNS): 32 µM
- GI50 (SF-539 CNS): 6.62 µM
- TGI (SF-539 CNS): 14.9 µM
- GI50 (OVCAR-8 ovarian): 9.04 µM
- TGI (OVCAR-8 ovarian): 27.3 µM
- GI50 (KM12 colon): 16.1 µM
- TGI (KM12 colon): 45.6 µM
- GI50 (LOX IMVI melanoma): 10.5 µM
- TGI (LOX IMVI melanoma): 24.1 µM
- GI50 (SK-MEL-5 melanoma): 8.48 µM
- TGI (SK-MEL-5 melanoma): 16.2 µM
- GI50 (HS 578T breast): 10.6 µM
- TGI (HS 578T breast): 28.1 µM
- GI50 (DU-145 prostate): 5.18 µM
- TGI (DU-145 prostate): 21.8 µM
- GI50 (MDA-MB-435): 6.7 µM
- TGI (MDA-MB-435): 15.9 µM
- GI50 (NCI-H460 lung): 10.5 µM
- TGI (NCI-H460 lung): > 50 µM
- GI50 (HOP-92 NSCLC): 9.55 µM
- TGI (HOP-92 NSCLC): 23.7 µM
- GI50 (BT-549 breast): 10.4 µM
- TGI (BT-549 breast): 22.2 µM
- GI50 (SNB-19 CNS): 26.6 µM
- TGI (SNB-19 CNS): > 50 µM
- GI50 (HCT-15 colon): 8.19 µM
- TGI (HCT-15 colon): 19.9 µM
- GI50 (ACHN renal): 8.94 µM
- TGI (ACHN renal): 22.7 µM
- GI50 (HOP-62 NSCLC): 19 µM
- TGI (HOP-62 NSCLC): > 50 µM
- GI50 (SK-MEL-2 melanoma): 19.4 µM
- TGI (SK-MEL-2 melanoma): > 50 µM
- GI50 (UACC-62 melanoma): 6.43 µM
- TGI (UACC-62 melanoma): 14 µM
- GI50 (MCF7 breast): 9.41 µM
- TGI (MCF7 breast): > 50 µM
- GI50 (NCI/ADR-RES ovarian): 7.57 µM
- TGI (NCI/ADR-RES ovarian): 18.9 µM
- GI50 (IGROV1 ovarian): 15.2 µM
- TGI (IGROV1 ovarian): > 50 µM
- GI50 (A549 NSCLC): 7.96 µM
- TGI (A549 NSCLC): 23.9 µM
- GI50 (M14 melanoma): 8.16 µM
- TGI (M14 melanoma): 18.6 µM
- GI50 (SF-268 CNS): 7.52 µM
- TGI (SF-268 CNS): 23.2 µM
- GI50 (UO-31 renal): 13.3 µM
- TGI (UO-31 renal): > 50 µM
- GI50 (SK-MEL-28 melanoma): 9.51 µM
- TGI (SK-MEL-28 melanoma): 22 µM
- GI50 (SK-OV-3 ovarian): 25.3 µM
- TGI (SK-OV-3 ovarian): > 50 µM
- GI50 (PC-3 prostate): 11.1 µM
- TGI (PC-3 prostate): > 50 µM
- GI50 (SR leukemia): 25.7 µM
- TGI (SR leukemia): > 50 µM
- TGI (COLO 205 colon): 30.9 µM
- GI50 (HCT-116 colon): 10.7 µM
- TGI (HCT-116 colon): > 50 µM
- GI50 (NCI-H23 lung): 11.2 µM
- TGI (NCI-H23 lung): 26.7 µM
- GI50 (EKVX NSCLC): 5.64 µM
- TGI (EKVX NSCLC): 16.4 µM
- GI50 (786-0 renal): 12.8 µM
- TGI (786-0 renal): > 50 µM
- GI50 (RPMI-8226 leukemia): 9.04 µM
- TGI (RPMI-8226 leukemia): 33.4 µM
- GI50 (CAKI-1 renal): 6.41 µM
- TGI (CAKI-1 renal): 20.2 µM
- GI50 (RXF 393 renal): 7.33 µM
- TGI (RXF 393 renal): 41.4 µM
- GI50 (MOLT-4 leukemia): > 50 µM
- TGI (MOLT-4 leukemia): > 50 µM
- GI50 (OVCAR-3 ovarian): 6.14 µM
- TGI (OVCAR-3 ovarian): 19.1 µM
